Reference: patent publication US20210318318A1, “Kinase Activity In Tumors” (Institute For Cancer Research d/b/a The Research Institute …, priority 2018, published 2021)

What was measured:
Assay type in all cases: cell-based, human
COV362 = experiment: Short-term growth assay (CellTiter-Glo cell viability), kinase inhibitors
Description: (§1) Cell viability was determined by Cell Titer Glo analysis.
COV362 cells were treated with increasing concentrations of A-674563 and cell viability assessed by Cell Titer Glo according to manufacturer's instructions. Data represent the mean of six replicates.
(§2) To explore the therapeutic potential of the HGSOC kinome signature, a detailed molecular analysis of protein levels/activity, growth and survival functions was carried out in a panel of recently validated HGSOC cell lines (Coscia et al., Nat. Commun., 2016, 7, 12645) that harbor commonly encountered HGSOC mutations and genetic rearrangements (see, FIG. 5A).
(§3) For short-term growth assays, 3000-5000 cells were plated per well in 96-well plates and allowed to adhere and equilibrate overnight. Drug was added the following morning and after 120 hours of drug treatment, cell viability was assessed using the CellTiter-Glo Luminescent cell viability assay according to manufacturer (Promega). Students t tests were performed for statistical analyses and p values ≤0.05 were considered significant. For colony formation assays, cells were plated in 24-well dishes (3000-5000 cells per well) and incubated overnight before continuous drug treatment for 14 days, with drug and media replaced twice weekly. At the end of treatment, cells were rinsed with PBS and fixed with chilled methanol for 10 minutes at −20° C. Methanol was removed by aspiration, and cells were stained with 0.5% crystal violet in 20% methanol for 20 minutes at room temperature, washed with distilled water, and scanned.

OVCAR4 cells = experiment: Drug growth inhibition in cells depleted of dark kinases by siRNA (Cell Titer Glo); conditions: increasing doses of drug
Description: OVCAR4 cells were transfected with control nontargeting or dark kinase siRNAs and treated with escalating doses of appropriate drugs.
To explore if blocking dark kinases AAK1, STK38 or MRCKA activity in combination with current therapies improves drug efficacy, OVCAR4 cells depleted of AAK1, STK38 or MRCKA were treated with increasing doses of carboplatin, olaparib, JQ1, or a variety of kinase inhibitors in clinical trials for HGSOC.
siRNA transfections were performed using 25 nM siRNA duplex and the reverse transfection protocol. 3000-5000 cells per well were added to 96 well plates with media containing the siRNA and transfection reagent (Lipofectamine RNAiMax) according to the manufacturer's instructions. In experiments where inhibitors were used, the inhibitor was added at the time of transfection. Cells were allowed to grow for 72-120 hours post-transfection prior to CellTiter Glo (Promega) analysis. Two-to-three independent experiments were performed with each cell line and siRNA. Students t tests were performed for statistical analyses and p values ≤0.05 were considered significant. For western blot studies, the same procedure was performed with volumes and cell numbers proportionally scaled to a 60 mm or 10 cm dish, and cells were collected 24-72 hours post-transfection. siRNA product numbers and manufacturers are listed in Table 5.

SNU-119 = experiment: Short-term growth assay (CellTiter-Glo cell viability), kinase inhibitors
Description: as §1, §2, §3

OVCAR4 = experiment: as above
Description: as §1, §2, §3

OVSAHO = experiment: as above
Description: as §1, §2, §3

Kuramochi = experiment: as above
Description: as §1, §2, §3

Structure (SMILES): NC(=O)Nc1cc(-c2cccc(F)c2)sc1C(=O)N[C@H]1CCCNC1 [AZD7762]
- Kinase inhibition profile of HGSOC cells (growth inhibition, Cell Titer Glo) (COV362; drug 0.312 uM): 0.05872
- growth inhibition by drug with MRCKA knockdown relative to non-targeting control siRNA (OVCAR4 cells): enhanced growth inhibition
- Kinase inhibition profile of HGSOC cells (growth inhibition, Cell Titer Glo) (SNU-119; drug 0.312 uM): 0
- Kinase inhibition profile of HGSOC cells (growth inhibition, Cell Titer Glo) (OVCAR4; drug 0.312 uM): 0
- Kinase inhibition profile of HGSOC cells (growth inhibition, Cell Titer Glo) (OVSAHO; drug 0.312 uM): 0.7988
- Kinase inhibition profile of HGSOC cells (growth inhibition, Cell Titer Glo) (Kuramochi; drug 0.312 uM): 0.663

Structure (SMILES): COc1cc(Nc2ncc3c(n2)-c2ccc(Cl)cc2C(c2c(F)cccc2OC)=NC3)ccc1C(=O)O [Alisertib]
- Kinase inhibition profile of HGSOC cells (growth inhibition, Cell Titer Glo) (COV362; drug 0.312 uM): 1.075
- Kinase inhibition profile of HGSOC cells (growth inhibition, Cell Titer Glo) (SNU-119; drug 0.312 uM): 1.057
- Kinase inhibition profile of HGSOC cells (growth inhibition, Cell Titer Glo) (OVCAR4; drug 0.312 uM): 0.1016
- Kinase inhibition profile of HGSOC cells (growth inhibition, Cell Titer Glo) (OVSAHO; drug 0.312 uM): 0.5387
- Kinase inhibition profile of HGSOC cells (growth inhibition, Cell Titer Glo) (Kuramochi; drug 0.312 uM): 0.5199

Structure (SMILES): CCOc1ccn(-c2ccc(F)cc2)c(=O)c1C(=O)Nc1ccc(Oc2ccnc(N)c2Cl)c(F)c1 [BMS777607]
- Kinase inhibition profile of HGSOC cells (growth inhibition, Cell Titer Glo) (COV362; drug 1.2 uM): 0.9079
- Kinase inhibition profile of HGSOC cells (growth inhibition, Cell Titer Glo) (SNU-119; drug 1.2 uM): 1.028
- Kinase inhibition profile of HGSOC cells (growth inhibition, Cell Titer Glo) (OVCAR4; drug 1.2 uM): 1.062
- Kinase inhibition profile of HGSOC cells (growth inhibition, Cell Titer Glo) (OVSAHO; drug 1.2 uM): 1.102
- Kinase inhibition profile of HGSOC cells (growth inhibition, Cell Titer Glo) (Kuramochi; drug 1.2 uM): 1.007

Structure (SMILES): COc1cc2c(Oc3ccc4[nH]c(C)cc4c3F)ncnc2cc1OCCCN1CCCC1 [Cederinib]
- Kinase inhibition profile of HGSOC cells (growth inhibition, Cell Titer Glo) (COV362; drug 1.2 uM): 0.9246
- Kinase inhibition profile of HGSOC cells (growth inhibition, Cell Titer Glo) (SNU-119; drug 1.2 uM): 0.6258
- Kinase inhibition profile of HGSOC cells (growth inhibition, Cell Titer Glo) (OVCAR4; drug 1.2 uM): 1.089
- Kinase inhibition profile of HGSOC cells (growth inhibition, Cell Titer Glo) (OVSAHO; drug 1.2 uM): 1.089
- Kinase inhibition profile of HGSOC cells (growth inhibition, Cell Titer Glo) (Kuramochi; drug 1.2 uM): 0.9466

Structure (SMILES): CCS(=O)(=O)N1CCN(c2ccc(Nc3ncc(C(N)=O)c(NC4CC4)n3)cc2)CC1 [Cerdulatinib]
- Kinase inhibition profile of HGSOC cells (growth inhibition, Cell Titer Glo) (COV362; drug 2.5 uM): −0.008256
- Kinase inhibition profile of HGSOC cells (growth inhibition, Cell Titer Glo) (SNU-119; drug 2.5 uM): 0.8395
- Kinase inhibition profile of HGSOC cells (growth inhibition, Cell Titer Glo) (OVCAR4; drug 2.5 uM): 0.5051
- Kinase inhibition profile of HGSOC cells (growth inhibition, Cell Titer Glo) (OVSAHO; drug 2.5 uM): 1
- Kinase inhibition profile of HGSOC cells (growth inhibition, Cell Titer Glo) (Kuramochi; drug 2.5 uM): 1

Structure (SMILES): CS(=O)(=O)N1CCN(Cc2cc3nc(-c4cccc5[nH]ncc45)nc(N4CCOCC4)c3s2)CC1 [GDC-0941]
- growth inhibition by drug combined with knockdown of STK38 (OVCAR4 cells): improved growth inhibition

Structure (SMILES): CCc1cc(Nc2nccc(-c3c(-c4ccc(OC)c(C(=O)Nc5c(F)cccc5F)c4)nc4ccccn34)n2)c(OC)cc1N1CCC(N2CCN(S(C)(=O)=O)CC2)CC1 [GSK529A]
- Kinase inhibition profile of HGSOC cells (growth inhibition, Cell Titer Glo) (COV362; drug 5 uM): 0.9731
- Kinase inhibition profile of HGSOC cells (growth inhibition, Cell Titer Glo) (SNU-119; drug 5 uM): 0.6579
- Kinase inhibition profile of HGSOC cells (growth inhibition, Cell Titer Glo) (OVCAR4; drug 5 uM): 0.5226
- Kinase inhibition profile of HGSOC cells (growth inhibition, Cell Titer Glo) (OVSAHO; drug 5 uM): 0.6574
- Kinase inhibition profile of HGSOC cells (growth inhibition, Cell Titer Glo) (Kuramochi; drug 5 uM): 0.9732

Structure (SMILES): Cc1sc2c(c1C)C(c1ccc(Cl)cc1)=N[C@@H](CC(=O)OC(C)(C)C)c1nnc(C)n1-2 [JQ1]
- growth inhibition by drug combined with depletion of AAK1 (OVCAR4 cells): enhanced growth inhibition
- growth inhibition by drug with MRCKA knockdown relative to non-targeting control siRNA (OVCAR4 cells): enhanced growth inhibition

Structure (SMILES): CNc1ncc2cc(-c3cc(NC(=O)NCCC(C)(C)C)c(F)cc3C)c(C)nc2n1 [LY300]
- Kinase inhibition profile of HGSOC cells (growth inhibition, Cell Titer Glo) (COV362; drug 1.2 uM): 0.2612
- Kinase inhibition profile of HGSOC cells (growth inhibition, Cell Titer Glo) (SNU-119; drug 1.2 uM): 0.6599
- Kinase inhibition profile of HGSOC cells (growth inhibition, Cell Titer Glo) (OVCAR4; drug 1.2 uM): 0.6062
- Kinase inhibition profile of HGSOC cells (growth inhibition, Cell Titer Glo) (OVSAHO; drug 1.2 uM): 0.166
- Kinase inhibition profile of HGSOC cells (growth inhibition, Cell Titer Glo) (Kuramochi; drug 1.2 uM): 0.09151
